Where “and” joins values, the source holds several entries; their conditions need not be identical. Identical values can stand only once.
Tests used:
[1] = biological target: T1, slo1 (cbv1 isoform)+β1 BK channels (Rattus norvegicus, UniProt P97678); experiment: Channel activity (NPo) in POPE/POPS planar lipid bilayers, cbv1+β1; format: biochemical; settings: for normalized NPo, time course Fig 2E: 10uM PROG; for action on channel activity (NPo): 10 μM, cis chamber, vs DMSO
T1 construct: made in house; host or cells: CHO cells, transient transfection; sucrose-gradient membrane preparation
T1 sequence (P97678 whole entry, canonical isoform): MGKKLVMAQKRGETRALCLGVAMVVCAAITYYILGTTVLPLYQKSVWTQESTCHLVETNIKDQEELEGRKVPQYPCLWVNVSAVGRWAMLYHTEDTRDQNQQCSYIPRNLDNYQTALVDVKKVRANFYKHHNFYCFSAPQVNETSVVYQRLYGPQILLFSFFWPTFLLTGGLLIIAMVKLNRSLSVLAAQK
T1 sequence (Q62976 1-1148 isoform Q62976-2 partner): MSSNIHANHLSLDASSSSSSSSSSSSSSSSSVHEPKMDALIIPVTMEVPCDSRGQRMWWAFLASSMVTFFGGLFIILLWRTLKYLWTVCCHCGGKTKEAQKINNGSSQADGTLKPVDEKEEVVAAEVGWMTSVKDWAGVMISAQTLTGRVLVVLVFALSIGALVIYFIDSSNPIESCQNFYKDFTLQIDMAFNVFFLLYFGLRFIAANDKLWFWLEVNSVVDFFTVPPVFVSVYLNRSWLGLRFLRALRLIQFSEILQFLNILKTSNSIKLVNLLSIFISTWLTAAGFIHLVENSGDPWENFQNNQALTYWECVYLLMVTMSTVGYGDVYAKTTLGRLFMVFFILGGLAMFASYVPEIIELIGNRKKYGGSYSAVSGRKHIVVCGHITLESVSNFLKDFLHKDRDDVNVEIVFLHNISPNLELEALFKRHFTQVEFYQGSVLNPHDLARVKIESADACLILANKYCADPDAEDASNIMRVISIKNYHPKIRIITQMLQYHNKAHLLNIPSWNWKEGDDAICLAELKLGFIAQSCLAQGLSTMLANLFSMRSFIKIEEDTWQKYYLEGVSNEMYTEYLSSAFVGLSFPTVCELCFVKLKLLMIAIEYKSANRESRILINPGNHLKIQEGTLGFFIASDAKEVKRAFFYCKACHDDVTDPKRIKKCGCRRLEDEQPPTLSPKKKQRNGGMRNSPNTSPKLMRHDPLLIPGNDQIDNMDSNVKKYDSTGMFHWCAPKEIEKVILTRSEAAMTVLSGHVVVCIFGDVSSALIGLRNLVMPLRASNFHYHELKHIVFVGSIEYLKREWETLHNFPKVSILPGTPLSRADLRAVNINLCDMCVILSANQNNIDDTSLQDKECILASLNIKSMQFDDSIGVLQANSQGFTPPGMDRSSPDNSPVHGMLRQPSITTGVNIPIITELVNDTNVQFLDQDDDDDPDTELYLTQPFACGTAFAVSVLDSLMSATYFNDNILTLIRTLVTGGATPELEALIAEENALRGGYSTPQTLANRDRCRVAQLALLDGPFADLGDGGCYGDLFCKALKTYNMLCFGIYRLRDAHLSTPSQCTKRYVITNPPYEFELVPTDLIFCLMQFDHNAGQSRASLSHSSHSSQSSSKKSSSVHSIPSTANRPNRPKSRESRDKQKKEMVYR
Text: BK channel-forming slo1 cDNA (cbv1 isoform; AY330293) was cloned from rat cerebral artery SM cells, and inserted into pcDNA3.1 vector as described. BK β1 cDNA (KCNMB1 product; NP_011452; FJ154955) were isolated from rat cerebral artery SM cells and cloned as described. β4 cDNA (KCNMB4; NP_055320; AY028605) were generously provided by Dr. Ligia Toro. CHO cells were transiently transfected with cbv1 ± β1-, or β4-carrying pcDNA3.1 using X-tremeGENE HP (Sigma-Aldrich). Mutations to β1/4 cDNAs were conducted by Genscript, with sequences being confirmed to be >99% identical to KCNMB1 product; NP_011452 or β4 KCNMB4; NP_055320; respectively. β1/4 and mutant constructs were flag-tagged (DYKDDDDK-tag) by Genscript services for subsequent immunoprecipitation and use in microscale thermophoresis studies.
Proteins for electrophysiological recordings in artificial lipid bilayers remained untagged. Cells were transiently transfected as described above, pelleted and re-suspended on ice in 10 ml of buffer solution of the following composition (mM): 30 KCl, 2 MgCl2, 10 HEPES, 5 EGTA; pH 7.2. A membrane preparation was obtained using a sucrose gradient as described. Aliquots were stored at −80 °C. BK channel-mediated ionic current was recorded in planar lipid bilayers consisting of a POPE:POPS 3:1 (w/w) mixture. Lipid mixtures were dried under N2 and re-suspended in 25 mg/ml of n-decane BK currents following incorporation into horizontal bilayers at 300/30 mM cis/trans gradient as detailed elsewhere. Ion currents were obtained during a 10-min gap-free recording at 0 mV in the presence of 0.01, 10 μM PROG, 10 μM PROG-oxime, or vehicle control (dimethyl sulfoxide; DMSO). Currents were obtained in gap-free mode using a Warner BC-525D amplifier, low pass-filtered at 1 kHz and sampled at 5 kHz with Digidata 1550B/pCLAMP 11 (Molecular Devices). For comparison with previous data from us[16],[17],[45]–[47], studies were conducted at 20–22 °C. […]
(§1) Patch-clamp and bilayer data were analyzed using Clampfit 10.7 software (Molecular Devices). NPo was used as an index of channel steady-state activity where N = number of channels in the patch (defined as a maximal number of opening levels at Po≤1) and Po=single channel open probability. Drug-induced NPo changes were determined by comparing baseline NPo (i.e., NPo with the patch/cell perfused with bath solution) to the NPo from the same patch/cell exposed to the agent under study (DMSO/PROG/oxime) dissolved in bath solution. NPo and mean open time values were automatically calculated using Clampfit 10.7, the latter using a 50% threshold detection event.

[2] = system: slo1 (cbv1 isoform)+β4 BK channels; experiment: Channel activity (NPo) in POPE/POPS bilayers, cbv1+β4; format: biochemical, rat; settings: 10 μM
Text: BK channel-forming slo1 cDNA (cbv1 isoform; AY330293) was cloned from rat cerebral artery SM cells, and inserted into pcDNA3.1 vector as described. BK β1 cDNA (KCNMB1 product; NP_011452; FJ154955) were isolated from rat cerebral artery SM cells and cloned as described. β4 cDNA (KCNMB4; NP_055320; AY028605) were generously provided by Dr. Ligia Toro. CHO cells were transiently transfected with cbv1 ± β1-, or β4-carrying pcDNA3.1 using X-tremeGENE HP (Sigma-Aldrich). […]
Proteins for electrophysiological recordings in artificial lipid bilayers remained untagged. […] BK channel-mediated ionic current was recorded in planar lipid bilayers consisting of a POPE:POPS 3:1 (w/w) mixture. […]
as §1, with “NPo was used as an index of channel steady-state activity where N = number of channels in the patch (defined as a maximal number of opening levels at Po≤1) and Po=single channel open probability.” left out

CC(=O)[C@H]1CC[C@H]2[C@@H]3CCC4=CC(=O)CC[C@]4(C)[C@H]3CC[C@]12C [PROG, Progesterone] was tested, and the “ECmax (EC100) of channel activation” value ([1]; 0 mV, 30 μM free Ca2+) was 10 µM, the “concentrations at which the channel is activated” value ([1]; 0 mV, 30 μM free Ca2+) was “greater than 0.1 μM” and the NPo/NPobasal ([1]; 0.01 µM PROG, min 2, single records) was 1.005 and 1.018 and 0.9275 and 1.019. The NPo/NPobasal ([1]; 0.01 µM PROG, min 3, single records) was 1.029 and 1.009 and 1.058 and 0.9199, the NPo/NPobasal ([1]; 0.01 µM PROG, min 4, single records) was 1.061 and 1.114 and 0.9928 and 1.089 and the “NPo/NPobasal of the maximal channel activity” value ([1]; 0.01 µM PROG, single records (Fig 1F)) was 1.155 and 1 and 1.022 and 0.9918. For the same compound, the NPo/NPobasal ([1]; 0.1 µM PROG, min 2, single records) was 0.9159 and 1.034 and 0.6663 and 1.012, the NPo/NPobasal ([1]; 0.1 µM PROG, min 3, single records) was 0.7024 and 1.035 and 0.937 and 1.005 and the NPo/NPobasal ([1]; 0.1 µM PROG, min 4, single records) was 0.9376 and 1.037 and 1.102 and 0.9472. For the same compound, the NPo/NPobasal ([1]; 0.1 µM PROG, min 5, single records) was 0.831 and 1.031 and 0.9946, the NPo/NPobasal ([1]; 0.1 µM PROG, min 6, single records) was 0.9108 and 1.004 and the NPo/NPobasal ([1]; 0.1 µM PROG, min 7, single records) was 0.902 and 1.062. For the same compound, the NPo/NPobasal ([1]; 0.1 µM PROG, min 8, single records) was 0.9384 and 1.053, the NPo/NPobasal ([1]; 0.1 µM PROG, min 9, single records) was 0.9735 and 1.083 and the NPo/NPobasal ([1]; 0.1 µM PROG, min 10, single records) was 1.131 and 1.104. The NPo/NPobasal ([1]; 1 µM PROG, min 2, single records) was 1.067 and 1.036 and 1.018 and 0.9862, the NPo/NPobasal ([1]; 1 µM PROG, min 3, single records) was 1.103 and 0.992 and 0.9993 and 1.0069 and the NPo/NPobasal ([1]; 1 µM PROG, min 4, single records) was 0.9802 and 1.24 and 0.9671 and 1.426. The NPo/NPobasal ([1]; 1 µM PROG, min 5, single records) was 1.982 and 1.288 and 1.134 and 1.31, the NPo/NPobasal ([1]; 1 µM PROG, min 6, single records) was 1.589 and 1.543 and 1.405 and 1.4 and the NPo/NPobasal ([1]; 1 µM PROG, min 7, single records) was 1.339 and 1.38. The NPo/NPobasal ([1]; 1 µM PROG, min 8, single records) was 1.498 and 1.434, the NPo/NPobasal ([1]; 1 µM PROG, min 9, single records) was 1.121 and 1.382 and the NPo/NPobasal ([1]; 1 µM PROG, min 10, single records) was 1.43 and 1.377. For the same compound, the NPo/NPobasal ([1]; 3 µM PROG, min 3, single records) was 1.768 and 1.125 and 1.174, the NPo/NPobasal ([1]; 3 µM PROG, min 4, single records) was 2.026 and 1.046 and 1.706 and the NPo/NPobasal ([1]; 3 µM PROG, min 9, single records) was 2.184 and 1.286. For the same compound, the NPo/NPobasal ([1]; 3 µM PROG, min 10, single records) was 2.295 and 1.4507, the “normalized NPo, time course Fig 2E” value ([1]; cbv1+beta1, time 1 min (normalisation reference), columns = single bilayers) was 1 and the “normalized NPo, time course Fig 2E” value ([1]; cbv1+beta1, time 2 min) was 1.077 and 1.05 and 1.119 and 1.043 and 0.7556 and 0.908 and 1.053. For the same compound, the “normalized NPo, time course Fig 2E” value ([1]; cbv1+beta1, time 6 min) was 1.387 and 1.439 and 2.22 and 2.096 and 2.632 and 2.4507 and 1.714, the “normalized NPo, time course Fig 2E” value ([1]; cbv1+beta1, time 7 min) was 1.767 and 1.768 and 2.22 and 2.153 and 1.686 and 2.452 and 1.347 and the “normalized NPo, time course Fig 2E” value ([1]; cbv1+beta1, time 9 min) was 1.702 and 2.262 and 1.688 and 2.653 and 1.535 and 1.822. For the same compound, the “normalized NPo, time course Fig 2E” value ([1]; cbv1+beta1, time 10 min) was 1.856 and 2.788 and 1.831 and 1.767 and 1.527, the “action on channel activity (NPo)” value [1] was “readily and robustly activated” and the NPo/NPobasal ([1]; 100 µM PROG, min 2, single records) was 0.9793 and 1.054 and 0.898. For the same compound, the NPo/NPobasal ([1]; 100 µM PROG, min 3, single records) was 1.51 and 1.02 and 1.024, the NPo/NPobasal ([1]; 100 µM PROG, min 4, single records) was 1.597 and 1.676 and 0.9571 and the NPo/NPobasal ([1]; 100 µM PROG, min 5, single records) was 1.91 and 2.009 and 1.692. For the same compound, the NPo/NPobasal ([1]; 100 µM PROG, min 6, single records) was 2.017 and 2.015 and 2.955, the NPo/NPobasal ([1]; 100 µM PROG, min 7, single records) was 1.186 and 2.342 and 2.352 and the NPo/NPobasal ([1]; 100 µM PROG, min 8, single records) was 1.501 and 2.445 and 2.086. For the same compound, the NPo/NPobasal ([1]; 100 µM PROG, min 9, single records) was 1.524 and 2.434, the NPo/NPobasal ([1]; 100 µM PROG, min 10, single records) was 1.446 and 2.664 and the “action on channel activity (NPo)” value [2] was “readily and robustly activated”.

In the case of CC(=O)C1CCC2C3CCC4=CC(=NOCC(=O)O)CCC4(C)C3CCC12C (centres unmarked) [PROG-oxime, progesterone 3-(O-carboxymethyl)oxime], the NPo/NPobasal ([1]; 10 μM PROG-oxime, min 8, single records) is reported as 1.05 and 1.498 and 1.058 and 0.7956 and 1.316, the NPo/NPobasal ([1]; 10 μM PROG-oxime, min 9, single records) is reported as 1.025 and 1.49 and 0.9987 and 0.8873 and 1.604 and the NPo/NPobasal ([1]; 10 μM PROG-oxime, min 10, single records) is reported as 1.45 and 1.329 and 1.113 and 0.8109 and 1.283. The “maximal changes in channel activity (NPo/NPobasal)” value ([1]; 10 μM PROG-oxime, single records (Fig 3E)) was 1.0077 and 0.9962 and 1.086 and 1.4825 and 1.776 and 1.183 and the “action on channel activity (NPo)” value [1] was “did not differ from that evoked by vehicle control”.

Reference: publication PMC10636063, “Progesterone activation of β1-containing BK channels involves two binding sites” (Nature Communications, 2023)
